Results on 54 molecules are retold here after patent publication US20240254089A1, “MODULATORS OF MAS-RELATED G-PROTEIN RECEPTOR X4 AND RELATED PRODUCTS AND METHODS” (ESCIENT PHARMACEUTICALS, INC., priority 2020, published 2024).

Each structure is given as a SMILES string. Like-named read-outs stand apart in the source and are kept apart here. Bounds are passed on as bounds.

The assay has as its target T1, human MRGPR X4 (Homo sapiens, UniProt Q96LA9).
T1 construct: expressed in transfected cells
Briefly: MRGPR X4 antagonist activity, IP-One Gq HTRF assay in stably transfected HEK cells. It counts as cell-based. On the procedure: HEK cells stably transfected to express human MIRGPR X4 were maintained in an incubator at 37° C. with 5% CO2 and grown in DMEM media with 10% fetal bovine serum (FBS) and […] each of sodium pyruvate, Glutamax, penicillin/streptomycin, and Geneticin. HEK cells stably transfected to express mouse MRGPR A1 were maintained in the same incubator and grown in DMEM media with 10% FBS, 1% each of sodium pyruvate, Glutamax, penicillin/streptomycin, Geneticin, and 2.2 mg/mL Hygromycin.
Cells were plated in a 384-well assay plate at 20,000 cells per well in 12 μL of Opti-MEM and kept in an incubator overnight. On the day of the assay, compounds solubilized at 10 mM in DMSO were added as a 10-point curve (10 uM final top concentration with 1:3 serial dilutions) using a Tecan D300E digital dispenser. Agonists were diluted in assay buffer (final concentrations of 5.7 mM Tris-HCl, 43 mM NaCl, 50 mM LiCl, pH=8) and 2 μL of the appropriate agonist are added to each well. Final concentrations of agonists were 10 μM bilirubin, 20 μM deoxycholic acid, or 100 μM conjugated bilirubin (obtained from Lee Biosolutions, catalog #910-12). Final concentrations of DMSO were kept consistent across the plate. Plates were incubated in the dark for 1 h at 37° C. and then for 30 minutes at room temperature. IP-1 standards and HTRF detection reagents were added according to the IP-One—Gq Kit purchased from Cisbio (part number 62IPAPEJ) and incubated in the dark for 1 h at room temperature. The plate was read on a Molecular Devices SpectraMax iD5 plate reader. The HTRF ratio was calculated from the raw data and graphed using GraphPad Prism to calculate an IC50 value for each compound.
Background: TR-FRET usually uses a lanthanide donor and a delayed reading to cut background.

The mark [1] stands for this setting: versus 20 μM deoxycholic acid agonist, HEK cells expressing human MRGPR X4, read-out: MRGPRX4 Antagonist Activity.

T1 sequence (Q96LA9 whole entry): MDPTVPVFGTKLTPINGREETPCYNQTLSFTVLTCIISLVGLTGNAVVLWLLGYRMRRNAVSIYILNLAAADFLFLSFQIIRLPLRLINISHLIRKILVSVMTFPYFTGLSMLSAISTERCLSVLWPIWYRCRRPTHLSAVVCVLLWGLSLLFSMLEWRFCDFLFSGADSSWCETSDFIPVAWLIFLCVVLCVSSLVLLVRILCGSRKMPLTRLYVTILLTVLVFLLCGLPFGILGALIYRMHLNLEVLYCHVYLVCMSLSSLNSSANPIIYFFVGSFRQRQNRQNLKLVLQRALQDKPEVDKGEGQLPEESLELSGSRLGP

For the molecule `CC(C)c1cccc(Cn2nc(C(=O)NCCc3nnc4ccccn34)c3ccccc32)c1` [Compound 456], the IC50 was in the range of 100 to 500 nM. On to `COc1ccc(Cn2nc(C(=O)NS(=O)(=O)c3cccc(C)c3)c3ccccc32)cc1` [Compound 293], for which the IC50 under setting [1] was 1000 to 2500 nM. `O=C(NCCc1nnc2ccccn12)c1nn(Cc2nc(C3CCC3)no2)c2ccccc12` [Compound 511] came in with an IC50 of 100 to 500 nM. On to `COc1ccccc1Cn1nc(C(=O)NCCc2nnc3ccccn23)c2ccccc21` [Compound 430], for which the IC50 is greater than 2500 nM. In turn, `Cc1ccc(Cn2nc(C(=O)NCCc3nnc4n3CCC4)c3ccccc32)cc1` [Compound 59] displayed an IC50 of 100 to 500 nM.

`O=C(NCCc1ccccn1)c1cn(Cc2ccc(OC(F)F)cc2)c2ccccc12` [Compound 167] returned an IC50 of 100 to 500 nM.

For the molecule `COc1ccc(CCNC(=O)c2nn(Cc3ccc(Cl)cc3)c3ccccc23)nc1` [Compound 61], the IC50 was 100 to 500 nM. As for `Cc1ccccc1NC(=O)CS(=O)(=O)c1cn(Cc2ccc(Cl)cc2)c2ccccc12` [Compound 255], the IC50 under setting [1] is greater than 2500 nM. For `O=C(NCCOc1ccccc1)c1nn(Cc2ccc(Cl)cc2)c2ccccc12` [Compound 381], the IC50 lay within 1000 to 2500 nM.

Molecule `Cc1ccc2c(C(=O)NCCc3nnc4ccccn34)nn(Cc3ccc(Cl)cc3)c2c1` [Compound 549] had an IC50 of 100 to 500 nM. As to `Cc1noc(CCNC(=O)c2nn(Cc3ccc(Cl)cc3)c3ccccc23)n1` [Compound 420], the IC50 was 1000 to 2500 nM. Same read-out and setting: in the case of `O=C(NCCc1cccnc1)c1nn(Cc2ccc(Cl)cc2F)c2ccccc12` [Compound 18] it was less than 100 nM; in that of `CC(c1ccc(Cl)cc1)n1nc(C(=O)NCCc2nnc3n2CCCCC3)c2ccccc21` (stereo not drawn) [Compound 74], 501 to 1000 nM; in that of `O=C(NCCc1nnc2ccccn12)c1nn(Cc2nc3ccccc3s2)c2ccccc12` [Compound 497], less than 100 nM.

In turn, `O=C(NCCc1nnc2ccccn12)c1nn(Cc2ccc(C(F)(F)F)cc2)c2ccccc12` [Compound 14] had an IC50 of less than 100 nM. The same measure, in the same setting: in the case of `O=C(NCc1cn2cccnc2n1)c1nn(Cc2ccc(Cl)cc2)c2ccccc12` [Compound 368] it was 100 to 500 nM. `Cc1ccccc1CCNC(=O)c1cn(Cc2ccc(Cl)cc2)c2ccccc12` [Compound 178]: the IC50 fell in the range of 100 to 500 nM.

Take `Cc1cccc2c(CCNC(=O)c3nn(Cc4ccc(Cl)cc4)c4ccccc34)c[nH]c12` [Compound 341]: the IC50 was greater than 2500 nM. In the case of `COc1cccc(S(=O)(=O)NC(=O)c2nn(Cc3ccc(OC(F)F)cc3)c3ccccc23)c1` [Compound 285], under setting [1], the IC50 lay in the range of 1000 to 2500 nM. `Cc1ccc(Cn2cc(C(=O)NCCc3ccc(Cl)c(F)c3)c3ccccc32)cc1` [Compound 196] displayed an IC50 of 501 to 1000 nM.

For `Cc1nc(Cn2nc(C(=O)NCCc3nnc4ccccn34)c3ccccc32)cs1` [Compound 439], the IC50 was 100 to 500 nM.

`Cn1cc(C(=O)Cn2nc(C(=O)NCCc3nnc4ccccn34)c3ccccc32)cn1` [Compound 467] gave an IC50 of 100 to 500 nM. Regarding `CS(=O)(=O)NCCNC(=O)c1nn(Cc2ccc(Cl)cc2)c2ccccc12` [Compound 384], the IC50 under setting [1] was greater than 2500 nM. In turn, `Cc1ccc2nc(Cn3nc(C(=O)NCCc4nnc5ccccn45)c4ccccc43)n(C)c2c1` [Compound 568] came in with an IC50 of 501 to 1000 nM. The molecule `O=C(NCCc1nc2c(s1)CCCC2)c1nn(Cc2ccc(OC(F)F)cc2)c2ccccc12` [Compound 82] registered an IC50 of 501 to 1000 nM. For `O=C(NCCc1cccnc1)c1nn(Cc2ccccc2F)c2ccccc12` [Compound 125], the IC50 is greater than 2500 nM. Still for that read-out and setting: for `Cc1ccc(Cn2nc(C(=O)NCCc3nc(C)c(C)s3)c3ccccc32)cc1` [Compound 53] the value was 100 to 500 nM. Regarding `O=C(NCCn1cc(CN2CCS(=O)(=O)CC2)nn1)c1nn(Cc2ccc(Cl)cc2)c2ccccc12` [Compound 147], the IC50 under setting [1] was greater than 2500 nM. On the same count and under the same terms, for `Cc1ccc(S(=O)(=O)NC(=O)c2nn(Cc3ccc(OC(F)F)cc3)c3ccccc23)cc1C` [Compound 295] the value was 1000 to 2500 nM. Molecule `O=C(NCCc1cccnc1)c1nn(Cc2ccc(Cl)c(F)c2)c2ccccc12` [Compound 17] yielded an IC50 of less than 100 nM. `Cc1ccc(Cn2cc(C(=O)NCCc3cn4c(n3)SCC4)c3ccccc32)cc1` [Compound 181] returned an IC50 of 100 to 500 nM. `O=C(NCCc1nnc2ccccn12)c1nn(Cc2ncco2)c2ccccc12` [Compound 440] returned an IC50 greater than 2500 nM. In the case of `O=C(O)c1nn(Cc2ccc(Cl)cc2Cl)c2ccccc12` [Compound 316, 1-(2,4-dichlorobenzyl)-1H-indazole-3-carboxylic acid], the IC50 under setting [1] lay within 1000 to 2500 nM.

With `Cc1ccc(Cn2nc(C(=O)NCCc3nnc(C4CCOCC4)[nH]3)c3ccccc32)cc1` [Compound 109], the IC50 under setting [1] fell in the range of 1000 to 2500 nM. For `Cc1ccc(Cn2nc(C(=O)NS(=O)(=O)c3cccc(C)c3)c3ccccc32)cc1` [Compound 297], the IC50 under setting [1] was greater than 2500 nM. Molecule `O=C(NCCc1nnc2ccccn12)c1nn(Cc2ccc3c(c2)CCC3)c2ccc(F)cc12` [Compound 537] came in with an IC50 of less than 100 nM.

Turning to `COc1ccc(CCNC(=O)c2nn(Cc3ccc(Cl)cc3)c3ccccc23)cn1` [Compound 364], the IC50 lay within 100 to 500 nM.

The molecule `Cc1nc(CCNC(=O)c2nn(Cc3ccc(Cl)cc3)c3ccccc23)sc1C(=O)O` [Compound 88] returned an IC50 of 501 to 1000 nM. Turning to `O=C(CS(=O)(=O)c1cn(Cc2ccc(Cl)cc2)c2ccccc12)Nc1ccc(F)cc1` [Compound 245], the IC50 under setting [1] lay within 501 to 1000 nM. `Cc1cc(C)c(Cn2nc(C(=O)NCCc3nnc4ccccn34)c3ccccc32)c(C)c1` [Compound 479] yielded an IC50 of 100 to 500 nM. The molecule `O=C(NCCc1nnc2ccccn12)c1nn(CC(=O)C2CCCCC2)c2ccccc12` [Compound 469] returned an IC50 of 1000 to 2500 nM. Molecule `O=C(NCCc1nnc2ccccn12)c1nn(Cc2ccc3sccc3c2)c2ccccc12` [Compound 495] registered an IC50 of less than 100 nM.

In the case of `O=C(O)c1nn(Cc2ccc(Cl)cc2)c2ccc(Cl)cc12` [Compound 320], the IC50 lay in the range of 1000 to 2500 nM. For the molecule `COc1cccc(NC(=O)CS(=O)(=O)c2cn(Cc3ccc(Cl)cc3)c3ccccc23)c1` [Compound 238], under setting [1], the IC50 lay in the range of 100 to 500 nM. In turn, `O=C(NCCc1nnc2ccccn12)c1nn(Cc2ccc(Cl)cc2)c2cccc(Cl)c12` [Compound 547] yielded an IC50 of 501 to 1000 nM. Still for that read-out and setting: in the case of `O=C(O)c1nn(Cc2ccc(Cl)cc2)c2cc(F)ccc12` [Compound 326] it was greater than 2500 nM. In turn, `CC(C)c1cc(CNC(=O)c2nn(Cc3ccc(Cl)cc3)c3ccccc23)on1` [Compound 422] returned an IC50 greater than 2500 nM.

`O=C(NCCc1nnc2ccccn12)c1nn(Cc2ccc(Cl)cc2F)c2ccc(F)cc12` [Compound 572]: the IC50 is less than 100 nM. For the molecule `Cc1cccc(Cn2nc(C(=O)NCCc3cccnc3)c3ccccc32)c1` [Compound 115], the IC50 was 1000 to 2500 nM. For the molecule `O=C(NCCc1nc2c(s1)CCCC2)c1nn(Cc2ccc(Cl)cc2F)c2ccccc12` [Compound 131], the IC50 was 100 to 500 nM. Regarding `COc1cccc(Cn2cc(C(=O)NCCc3cccnc3)c3ccccc32)c1` [Compound 211], the IC50 lay within 1000 to 2500 nM. Still for that read-out and setting: for `O=C(Cn1nc(C(=O)NCCc2nnc3ccccn23)c2ccccc21)c1ccc(Cl)cc1` [Compound 481] the value was 501 to 1000 nM; for `Cc1ccc(Cn2nc(C(=O)NCCc3nc4c(s3)CCCC4)c3cc(Cl)ccc32)cc1` [Compound 110], 1000 to 2500 nM.

For the molecule `O=C(NCCc1nnc2ccccn12)c1nn(CCC2CCCC2)c2ccccc12` [Compound 504], the IC50 is 501 to 1000 nM.
